Source: article PMC7601397, “Discovery of Sulforaphane as a Potent BACE1 Inhibitor Based on Kinetics and Computational Studies” (Nutrients, 2020)

Biological target: BACE1 (Homo sapiens, UniProt P56817)
Assay: FRET enzyme assay (kit); Dixon and Lineweaver-Burk kinetics
Assay type: biochemical

Sequence of BACE1 (P56817 46-457): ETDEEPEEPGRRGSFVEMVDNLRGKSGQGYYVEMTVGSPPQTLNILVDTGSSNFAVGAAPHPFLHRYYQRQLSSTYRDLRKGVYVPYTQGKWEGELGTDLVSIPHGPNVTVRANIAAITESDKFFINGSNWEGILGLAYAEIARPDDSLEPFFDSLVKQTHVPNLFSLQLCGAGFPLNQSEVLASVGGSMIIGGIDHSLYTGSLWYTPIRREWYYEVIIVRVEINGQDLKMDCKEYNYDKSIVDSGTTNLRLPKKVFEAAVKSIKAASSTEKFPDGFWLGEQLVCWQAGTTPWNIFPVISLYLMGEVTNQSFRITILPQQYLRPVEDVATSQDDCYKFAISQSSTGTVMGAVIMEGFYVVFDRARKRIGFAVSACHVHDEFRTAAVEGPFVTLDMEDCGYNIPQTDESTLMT

Structure (SMILES): C[S+]([O-])CCCCN=C=S (stereo not shown) [Sulforaphane]
- Ki: 3.1 µM
